For orientation: IC50 means the concentration that gives 50% inhibition.

The record followed here is US10131658B2, “Anti-alphavbeta1 integrin compounds and methods” (The Regents of the University of California, priority 2013, dated 2018).

Structures are written as SMILES. A value given as a limit tells only on which side of the number the result lay.

The first experiment concerns TGFβ activation by cells expressing αvβ1. Nature of the experiment: TGFβ activation assay (co-culture with PAI1-luciferase TGFβ reporter cells). The format is cell-based.
Conditions: not given
On the procedure:
Test cells were plated at 50K cells/well in 96-well plates together with mink lung epithelial cells expressing firefly luciferase downstream of the TGFβ sensitive portion of the plasminogen activator inhibitor 1 promoter (15K cells/well). Cells were co-cultured for 16 hours and TGFβ activity was calculated by measurement of luminescencein the presence and absence of TGFβ-blocking antibody, 1D11.
With `N=C(N)NCCCCC(=O)Nc1ccc(C[C@H](NC(=O)[C@@H]2CCCN2S(=O)(=O)c2ccccc2)C(=O)O)cc1` [Compound 8, (S)-3-(4-(5-guanidinopentanamido)phenyl)-2-((S)-1-(phenylsulfonyl)pyrrolidine-2-carboxamido)propanoic acid], the “TGFβ activation by cultured liver myofibroblasts” value was “inhibits TGFβ activation”.

The subject of another experiment is αvβ1 integrin. Put plainly: Cell Adhesion Assay (integrin-specific adhesion, CHO cells transfected with human αv adhering to fibronectin). To be noted: Cell Adhesion Assay. The format is cell-based. As to the method:
The effects of c8 and c16 on cell adhesion mediated by α5β1, α8β1, αvβ1, αvβ3, αvβ5, αvβ6, and αvβ8 were measured using pairs of cell lines and ligands selected to isolate the effect of each individual integrin. For α5β1 we utilized the colon carcinoma cell line, SW480, plated on 0.3 μg/ml fibronectin, for α8β1, we utilized SW480 cells transfected with human α8 adhering to 1 μg/ml recombinant TGFβ1 LAP [5], for αvβ1 we used Chinese Hamster Ovary Cells (CHO cells) transfected with human αv adhering to 0.3 μg/ml fibronectin [6], for αvβ3 we used SW480 cells transfected with human β3, for αvβ5 we used wild type SW480 cells adhering to 0.1 μg/ml vitronectin. […] Cells were allowed to attach for 30-60 min at 37° C. After incubation, non-adherent cells were removed by discarding the media and spinning the plate top-side down at 500 rpm for 5 minutes. Cells were then fixed and stained with 40 ul of 0.5% Crystal violet, 1% Formaldehyde, 20% Methanol for 30 minutes and lysed with 2% Trition-X. Absorbance was measured at 595 nm in a Microplate reader. For all assays, concentration-response curves were constructed by non-linear regression analysis and IC50 values were calculated using GraphPad Prism software.
αvβ1 integrin inhibition is effective in cell adhesion assay/mouse liver fibrosis model: Inhibitors were tested in cell adhesion assay to test their potency/selectivity. A panel of cell lines and integrin ligands were developed to allow rapid examination of potency and specificity of inhibitors against all 8 integrins that recognize RGD sequences in ligands. A subset of these was used to generate the very encouraging data about 8 shown above. These cell lines were used to calculate IC50 concentrations for each inhibitor synthesized to rapidly generate structure activity information to drive subsequent modification and synthesis. Inhibitors were evaluated for showing better potency/selectivity in CCl4-induced liver fibrosis. A general inhibitor of αv integrins can reverse fibrosis in this model when administered as a continuous subcutaneous infusion (from Alzet pumps) beginning 3 weeks after CCl4 initiation. However, global inhibition of all αv integrins is likely to cause unacceptable side effects. […] As above, pumps will be inserted after 3 weeks of CCl4 treatment. Once we find small molecules that are effective, each will be further tested in the UUO model of renal fibrosis and the bleomycin model of pulmonary fibrosis. Again we will examine therapeutic rather than prophylactic efficacy by beginning treatment in each model after the onset of fibrosis.
`CNCCCCCC(=O)N[C@H](CCCNC(=N)N)C(=O)Nc1ccc(C[C@H](NC(=O)[C@@H]2CCCN2S(=O)(=O)c2ccccc2)C(=O)O)cc1` (stereo in doubt) [Compound 199] displayed an IC50 of less than 10 nM. Same read-out and setting: under `NCC(=O)Nc1ccc(C[C@H](NC(=O)[C@@H]2CCCN2S(=O)(=O)c2ccccc2)C(=O)O)cc1` [Compound 1, (S)-3-(4-(2-aminoacetamido)phenyl)-2-((S)-1-(phenylsulfonyl)pyrrolidine-2-carboxamido)propanoic acid] stands 1000 to 10000 nM; under `NCCC(=O)Nc1ccc(C[C@H](NC(=O)[C@@H]2CCCN2S(=O)(=O)c2ccccc2)C(=O)O)cc1` [Compound 2, (S)-3-(4-(3-aminopropanamido)phenyl)-2-((S)-1-(phenylsulfonyl)pyrrolidine-2-carboxamido)propanoic acid], 10 to 1000 nM; under `NCCCC(=O)Nc1ccc(C[C@H](NC(=O)[C@@H]2CCCN2S(=O)(=O)c2ccccc2)C(=O)O)cc1` [Compound 3, (S)-3-(4-(4-aminobutanamido)phenyl)-2-((S)-1-(phenylsulfonyl)pyrrolidine-2-carboxamido)propanoic acid], 10 to 1000 nM. In turn, `N=C(N)NCC(=O)Nc1ccc(C[C@H](NC(=O)[C@@H]2CCCN2S(=O)(=O)c2ccccc2)C(=O)O)cc1` [Compound 4, (S)-3-(4-(2-guanidinoacetamido)phenyl)-2-((S)-1-(phenylsulfonyl)pyrrolidine-2-carboxamido)propanoic acid] displayed an IC50 of 10 to 1000 nM. As to `N=C(N)NCCC(=O)Nc1ccc(C[C@H](NC(=O)[C@@H]2CCCN2S(=O)(=O)c2ccccc2)C(=O)O)cc1` [Compound 5, (S)-3-(4-(3-guanidinopropanamido)phenyl)-2-((S)-1-(phenylsulfonyl)pyrrolidine-2-carboxamido)propanoic acid], the IC50 was less than 10 nM.

As to `NCCCC(=O)Nc1ccc(C[C@H](NC(=O)[C@@H]2CCCN2S(=O)(=O)c2ccccc2)C(=O)O)cc1` [Compound 6, (S)-3-(4-(4-aminobutanamido)phenyl)-2-((S)-1-(phenylsulfonyl)pyrrolidine-2-carboxamido)propanoic acid], the IC50 is less than 10 nM. In turn, `NCCCCC(=O)Nc1ccc(C[C@H](NC(=O)[C@@H]2CCCN2S(=O)(=O)c2ccccc2)C(=O)O)cc1` [Compound 7, (S)-3-(4-(5-aminopentanamido)phenyl)-2-((S)-1-(phenylsulfonyl)pyrrolidine-2-carboxamido)propanoic acid] displayed an IC50 of 1000 to 10000 nM. The same measure, in the same setting: under `N=C(N)NCCCCC(=O)Nc1ccc(C[C@H](NC(=O)[C@@H]2CCCN2S(=O)(=O)c2ccccc2)C(=O)O)cc1` [Compound 8, (S)-3-(4-(5-guanidinopentanamido)phenyl)-2-((S)-1-(phenylsulfonyl)pyrrolidine-2-carboxamido)propanoic acid] stands less than 10 nM. On the same count and under the same terms, under `NCCCCCC(=O)Nc1ccc(C[C@H](NC(=O)[C@@H]2CCCN2S(=O)(=O)c2ccccc2)C(=O)O)cc1` [Compound 9, (S)-3-(4-(6-aminohexanamido)phenyl)-2-((S)-1-(phenylsulfonyl)pyrrolidine-2-carboxamido)propanoic acid] stands 1000 to 10000 nM; under `N=C(N)NCCCCCC(=O)Nc1ccc(C[C@H](NC(=O)[C@@H]2CCCN2S(=O)(=O)c2ccccc2)C(=O)O)cc1` [Compound 10, (S)-3-(4-(6-guanidinohexanamido)phenyl)-2-((S)-1-(phenylsulfonyl)pyrrolidine-2-carboxamido)propanoic acid], 10 to 1000 nM; under `O=C(CCCCNC1=NCCN1)Nc1ccc(C[C@H](NC(=O)[C@@H]2CCCN2S(=O)(=O)c2ccccc2)C(=O)O)cc1` [Compound 11, (S)-3-(4-(5-((4,5-dihydro-1H-imidazol-2-yl)amino)pentanamido)phenyl)-2-((S)-1-(phenylsulfonyl)pyrrolidine-2-carboxamido)propanoic acid], 10 to 1000 nM. Take `O=C(CCCCNC1=NCCCN1)Nc1ccc(C[C@H](NC(=O)[C@@H]2CCCN2S(=O)(=O)c2ccccc2)C(=O)O)cc1` [Compound 60]: the IC50 is 10 to 1000 nM. On the same count and under the same terms, under `O=C(CCCc1ccc2c(n1)NCCC2)Nc1ccc(C[C@H](NC(=O)[C@@H]2CCCN2S(=O)(=O)c2ccccc2)C(=O)O)cc1` [Compound 63] stands 10 to 1000 nM; under `O=C(CCCNC1=NCCN1)Nc1ccc(C[C@H](NC(=O)[C@@H]2CCCN2S(=O)(=O)c2ccccc2)C(=O)O)cc1` [Compound 87, (S)-3-(4-(4-((4,5-dihydro-1H-imidazol-2-yl)amino)butanamido)phenyl)-2-((S)-1-(phenylsulfonyl)pyrrolidine-2-carboxamido)propanoic acid], less than 10 nM; under `N=C(N)NC(=O)CCC(=O)Nc1ccc(C[C@H](NC(=O)[C@@H]2CCCN2S(=O)(=O)c2ccccc2)C(=O)O)cc1` [Compound 93], 10 to 1000 nM. The same measure, in the same setting: under `CNCCCCCC(=O)N[C@H](CCCNC(=N)N)C(=O)Nc1ccc(C[C@H](NC(=O)C2CCCN2S(=O)(=O)c2ccccc2)C(=O)O)cc1` (stereo partly drawn) [Compound 198] stands 10 to 1000 nM; under `N=C(N)Nc1ccc(C(=O)Nc2ccc(C[C@H](NC(=O)[C@@H]3CCCN3S(=O)(=O)c3ccccc3)C(=O)O)cc2)cc1` [Compound 200, (S)-3-(4-(4-guanidinobenzamido)phenyl)-2-((S)-1-(phenylsulfonyl)pyrrolidine-2-carboxamido)propanoic acid], 10 to 1000 nM. `N=C(N)Nc1cccc(C(=O)Nc2ccc(C[C@H](NC(=O)[C@@H]3CCCN3S(=O)(=O)c3ccccc3)C(=O)O)cc2)c1` [Compound 201, (S)-3-(4-(3-guanidinobenzamido)phenyl)-2-((S)-1-(phenylsulfonyl)pyrrolidine-2-carboxamido)propanoic acid]: the IC50 is less than 10 nM. As for `N=C(N)NCCOCC(=O)Nc1ccc(C[C@H](NC(=O)[C@@H]2CCCN2S(=O)(=O)c2ccccc2)C(=O)O)cc1` [Compound 204, (S)-3-(4-(2-(2-guanidinoethoxy)acetamido)phenyl)-2-((S)-1-(phenylsulfonyl)pyrrolidine-2-carboxamido)propanoic acid], the IC50 fell in the range of 10 to 1000 nM. With `N=C(N)Nc1cccc(CC(=O)Nc2ccc(C[C@H](NC(=O)[C@@H]3CCCN3S(=O)(=O)c3ccccc3)C(=O)O)cc2)c1` [Compound 205, (S)-3-(4-(2-(3-guanidinophenyl)acetamido)phenyl)-2-((S)-1-(phenylsulfonyl)pyrrolidine-2-carboxamido)propanoic acid], the IC50 is 10 to 1000 nM. `Cc1ccc(NCCCC(=O)Nc2ccc(C[C@H](NC(=O)[C@@H]3CCCN3S(=O)(=O)c3ccccc3)C(=O)O)cc2)nc1` [Compound 206, (S)-3-(4-(4-((5-methylpyridin-2-yl)amino)butanamido)phenyl)-2-((S)-1-(phenylsulfonyl)pyrrolidine-2-carboxamido)propanoic acid] returned a concentration for half-maximal inhibition (IC50) of 10 to 1000 nM.

`Cc1cccc(NCCCC(=O)Nc2ccc(C[C@H](NC(=O)[C@@H]3CCCN3S(=O)(=O)c3ccccc3)C(=O)O)cc2)n1` [Compound 207, (S)-3-(4-(4-((6-methylpyridin-2-yl)amino)butanamido)phenyl)-2-((S)-1-(phenylsulfonyl)pyrrolidine-2-carboxamido)propanoic acid] displayed an IC50 of 10 to 1000 nM. The compound `Cc1cnc(NCCCC(=O)Nc2ccc(C[C@H](NC(=O)[C@@H]3CCCN3S(=O)(=O)c3ccccc3)C(=O)O)cc2)c(C)c1` [Compound 210, (S)-3-(4-(4-((3,5-dimethylpyridin-2-yl)amino)butanamido)phenyl)-2-((S)-1-(phenylsulfonyl)pyrrolidine-2-carboxamido)propanoic acid] displayed a concentration for half-maximal inhibition (IC50) of 10 to 1000 nM. The compound `N=C(N)NCCCC(=O)Nc1ccc(C[C@H](NC(=O)[C@@H]2CCCCN2S(=O)(=O)c2ccccc2)C(=O)O)cc1` [Compound 212] showed an IC50 of 10 to 1000 nM. Regarding `O=C(CCCNc1ccccn1)Nc1ccc(C[C@H](NC(=O)[C@@H]2CCCCN2S(=O)(=O)c2ccccc2)C(=O)O)cc1` [Compound 213], the IC50 is less than 10 nM. Turning to `Cc1cc(C)cc(S(=O)(=O)N2CCC[C@H]2C(=O)N[C@@H](Cc2ccc(NC(=O)CCCNC(=N)N)cc2)C(=O)O)c1` [Compound 214], the IC50 was in the range of 10 to 1000 nM. Consider `CN(C)c1cccc2c(S(=O)(=O)N3CCCC3C(=O)N[C@@H](Cc3ccc(NC(=O)CCCCNC(=N)N)cc3)C(=O)O)cccc12` (stereo partly drawn) [Compound 215], for which the IC50 was less than 10 nM.

Still in this experiment, the particulars now being: preliminary studies; highly selective manner.
Regarding `N=C(N)NCCCCC(=O)Nc1ccc(C[C@H](NC(=O)[C@@H]2CCCN2S(=O)(=O)c2ccccc2)C(=O)O)cc1` [Compound 8, (S)-3-(4-(5-guanidinopentanamido)phenyl)-2-((S)-1-(phenylsulfonyl)pyrrolidine-2-carboxamido)propanoic acid], the “concentration that inhibits cell adhesion by αvβ1 integrin” value is reported as less than 100 pM.
